Experimental data taken from EP4692083A1, “NOVEL AZABICYCLE DERIVATIVES AND PHARMACEUTICAL COMPOSITION FOR INHIBITING AUTOTAXIN, COMPRISING SAME” (Nextgen Bioscience Co., Ltd., priority 2023, dated 2024).

Target: human Autotaxin protein (Homo sapiens, UniProt Q13822)
Assay: Evaluation of the inhibitory activity against human Autotaxin protein (18:1 LysoPC substrate, choline assay kit, absorbance at 570 nm)
Type: biochemical
Details: at 500nM compound, 2 hours at 37 °C, read-out: Inhibition rate (%, at 500nM)
Method: Solutions of each synthesized compound (80 uM, 100% dimethyl sulfoxide) were sequentially diluted 5-fold with dimethyl sulfoxide to prepare 6 concentrations. Each concentration of the compound was diluted 2-fold with 1x test buffer (50 mM Tris-Cl (pH 8.0), 5 mM KCl, 1 mM CaCl2, 1 mM MgCl2, 140 mM NaCl, deionized water, 1 mg/mL BSA), and 1 uL (1.25% dimethylsulfoxide) of the diluted mixture was dispensed into each well of a 96-well clear round-bottom plate. 9 uL of 1x test buffer was added, and 20 uL of 240 nM human autotaxin protein (buffer: 50 mM Tris-HCl, pH 8.0, with 150 mM sodium chloride and 20% glycerol) was added. 10 uL of sonicated 360 uM 18:1 LysoPC (diluted with 1x assay buffer) was added. The reaction was performed for 2 hours in a shaking incubator at 37 °C, and a secondary reaction mixture (choline assay kit, KA1662) (65 uL of 1x assay buffer: 1 uL of choline oxidase: 1 uL of dye probe) was prepared. 60 uL of the secondary reaction mixture was added to the plate where the reaction was performed, and incubated for 30 minutes in a shaker. The absorbance value was measured at a wavelength of 570 nm using a SpectraMax iD3 microplate reader. The percentage inhibition activity value (% inhibition) was calculated by the formula: (1 - absorbance value test group / absorbance value control group) X 100.

SMILES | inhibition at 0.5 µM
c1ccc(CNc2ncc(-c3nnc(N4C[C@@H]5[C@H](C4)[C@H]5c4cnn[nH]4)o3)cn2)cc1 [Example 1, 5-(5-((1R,5S,6r)-6-(1H-1,2,3-Triazol-5-yl)-3-azabicyclo[3.1.0]hexan-3-yl)-1,3,4-oxadiazol-2-yl)-N-benzylpyrimidin-2-amine] | 63.6%
FC(F)(F)c1cccc(CNc2ncc(-c3nnc(N4C[C@@H]5[C@H](C4)[C@H]5c4cnn[nH]4)o3)cn2)c1 [Example 21, 5-(5-((1R,5S,6r)-6-(1H-1,2,3-Triazol-5-yl)-3-azabicyclo[3.1.0]hexan-3-yl)-1,3,4-oxadiazol-2-yl)-N-(3-(trifluoromethyl)benzyl)pyrimidin-2-amine] | 97.6%
FC(F)(F)c1ccc(CCNc2ncc(-c3nnc(N4C[C@@H]5[C@H](C4)[C@H]5c4cnn[nH]4)o3)cn2)cc1 [Example 26, 5-(5-((1R,5S,6r)-6-(1H-1,2,3-Triazol-5-yl)-3-azabicyclo[3.1.0]hexan-3-yl)-1,3,4-oxadiazol-2-yl)-N-(4-(trifluoromethyl)phenethyl)pyrimidin-2-amine] | 98.4%
Clc1ccc(CNc2ncc(-c3nnc(N4C[C@@H]5[C@H](C4)[C@H]5c4cnn[nH]4)o3)cn2)cc1 [Example 3, 5-(5-((1R,5S,6r)-6-(1H-1,2,3-Triazol-5-yl)-3-azabicyclo[3.1.0]hexan-3-yl)-1,3,4-oxadiazol-2-yl)-N-(4-chlorobenzyl)pyrimidin-2-amine] | 73.1%
c1ccc(CCNc2ncc(-c3nnc(N4C[C@@H]5[C@H](C4)[C@H]5c4cnn[nH]4)o3)cn2)cc1 [Example 11, 5-(5-((1R,5S,6r)-6-(1H-1,2,3-Triazol-5-yl)-3-azabicyclo[3.1.0]hexan-3-yl)-1,3,4-oxadiazol-2-yl)-N-phenethylpyrimidin-2-amine] | 85.3%
Clc1cccc(CCNc2ncc(-c3nnc(N4C[C@@H]5[C@H](C4)[C@H]5c4cnn[nH]4)o3)cn2)c1 [Example 14, 5-(5-((1R,5S,6r)-6-(1H-1,2,3-Triazol-5-yl)-3-azabicyclo[3.1.0]hexan-3-yl)-1,3,4-oxadiazol-2-yl)-N-(3-chlorophenethyl)pyrimidin-2-amine] | 85.3%
FC(F)c1ccc(CNc2ncc(-c3nnc(N4C[C@@H]5[C@H](C4)[C@H]5c4cnn[nH]4)o3)cn2)cc1 [Example 23, 5-(5-((1R,5S,6r)-6-(1H-1,2,3-Triazol-5-yl)-3-azabicyclo[3.1.0]hexan-3-yl)-1,3,4-oxadiazol-2-yl)-N-(4-(difluoromethyl)benzyl)pyrimidin-2-amine] | 82.2%
Clc1cccc(CNc2ncc(-c3nnc(N4C[C@@H]5[C@H](C4)[C@H]5c4cnn[nH]4)o3)cn2)c1 [Example 2, 5-(5-((1R,5S,6r)-6-(1H-1,2,3-Triazol-5-yl)-3-azabicyclo[3.1.0]hexan-3-yl)-1,3,4-oxadiazol-2-yl)-N-(3-chlorobenzyl)pyrimidin-2-amine] | 88.5%
Clc1ccc(CCNc2ncc(-c3nnc(N4C[C@@H]5[C@H](C4)[C@H]5c4cnn[nH]4)o3)cn2)cc1 [Example 15, 5-(5-((1R,5S,6r)-6-(1H-1,2,3-Triazol-5-yl)-3-azabicyclo[3.1.0]hexan-3-yl)-1,3,4-oxadiazol-2-yl)-N-(4-chlorophenethyl)pyrimidin-2-amine] | 94.5%
Cc1nc(NCCc2ccc(Cl)cc2)ncc1-c1nnc(N2C[C@@H]3[C@H](C2)[C@H]3c2cnn[nH]2)o1 [Example 40, 5-(5-((1R,5S,6r)-6-(1H-1,2,3-Triazol-5-yl)-3-azabicyclo[3.1.0]hexan-3-yl)-1,3,4-oxadiazol-2-yl)-N-(4-chlorophenethyl)-4-methylpyrimidin-2-amine] | 92.3%
FC(F)(F)c1cc(CNc2ncc(-c3nnc(N4C[C@@H]5[C@H](C4)[C@H]5c4cnn[nH]4)o3)cn2)cc(C(F)(F)F)c1 [Example 10, 5-(5-((1R,5S,6r)-6-(1H-1,2,3-Triazol-5-yl)-3-azabicyclo[3.1.0]hexan-3-yl)-1,3,4-oxadiazol-2-yl)-N-(3,5-bis(trifluoromethyl)benzyl)pyrimidin-2-amine] | 91.6%
O=C(CCc1cnc(NC2Cc3ccccc3C2)nc1)N1C[C@@H]2[C@H](C1)[C@H]2c1cnn[nH]1 [Example 19, 1-((1R,5S,6r)-6-(1H-1,2,3-Triazol-5-yl)-3-azabicyclo[3.1.0]hexan-3-yl)-3-(2-((2,3-dihydro-1H-inden-2-yl)amino)pyrimidin-5-yl)propan-1-one] | 91.9%
Brc1cc(Br)cc(CNc2ncc(-c3nnc(N4C[C@@H]5[C@H](C4)[C@H]5c4cnn[nH]4)o3)cn2)c1 [Example 8, 5-(5-((1R,5S,6r)-6-(1H-1,2,3-Triazol-5-yl)-3-azabicyclo[3.1.0]hexan-3-yl)-1,3,4-oxadiazol-2-yl)-N-(3,5-dibromobenzyl)pyrimidin-2-amine] | 97.3%
CN(CCc1ccc(Cl)cc1)c1ncc(-c2nnc(N3C[C@@H]4[C@H](C3)[C@H]4c3cnn[nH]3)o2)cn1 [Example 37, 5-(5-((1R,5S,6r)-6-(1H-1,2,3-Triazol-5-yl)-3-azabicyclo[3.1.0]hexan-3-yl)-1,3,4-oxadiazol-2-yl)-N-(4-chlorophenethyl)-N-methylpyrimidin-2-amine] | 91.7%
Fc1cccc(CCNc2ncc(-c3nnc(N4C[C@@H]5[C@H](C4)[C@H]5c4cnn[nH]4)o3)cn2)c1 [Example 12, 5-(5-((1R,5S,6r)-6-(1H-1,2,3-Triazol-5-yl)-3-azabicyclo[3.1.0]hexan-3-yl)-1,3,4-oxadiazol-2-yl)-N-(3-fluorophenethyl)pyrimidin-2-amine] | 82.9%

Second part, the compound after the results:

inhibition at 0.5 µM | SMILES
97% | Clc1cc(Cl)cc(CCNc2ncc(-c3nnc(N4C[C@@H]5[C@H](C4)[C@H]5c4cnn[nH]4)o3)cn2)c1 [Example 29, 5-(5-((1R,5S,6r)-6-(1H-1,2,3-Triazol-5-yl)-3-azabicyclo[3.1.0]hexan-3-yl)-1,3,4-oxadiazol-2-yl)-N-(3,5-dichlorophenethyl)pyrimidin-2-amine]
96.4% | Clc1ccccc1CCNc1ncc(-c2nnc(N3C[C@@H]4[C@H](C3)[C@H]4c3cnn[nH]3)o2)cn1 [Example 28, 5-(5-((1R,5S,6r)-6-(1H-1,2,3-Triazol-5-yl)-3-azabicyclo[3.1.0]hexan-3-yl)-1,3,4-oxadiazol-2-yl)-N-(2-chlorophenethyl)pyrimidin-2-amine]
98.6% | Brc1ccc(CCNc2ncc(-c3nnc(N4C[C@@H]5[C@H](C4)[C@H]5c4cnn[nH]4)o3)cn2)cc1 [Example 27, 5-(5-((1R,58,6r)-6-(1H-1,2,3-Triazol-5-yl)-3-azabicyclo[3.1.0]hexan-3-yl)-1,3,4-oxadiazol-2-yl)-N-(4-bromophenethyl)pyrimidin-2-amine]
96.8% | c1ccc2c(c1)CC[C@@H]2Nc1ncc(-c2nnc(N3C[C@@H]4[C@H](C3)[C@H]4c3cnn[nH]3)o2)cn1 [Example 35, 5-(5-((1R,5S,6S)-6-(1H-1,2,3-Triazol-5-yl)-3-azabicyclo[3.1.0]hexan-3-yl)-1,3,4-oxadiazol-2-yl)-N-((S)-2,3-dihydro-1H-inden-1-yl)pyrimidin-2-amine]
3.5% | O=C(O)C[C@@H]1[C@H]2CN(c3nnc(-c4cnc(NCCc5ccc(Cl)cc5)nc4)o3)C[C@@H]12 [Example 51, 2-((1R,5S,6s)-3-(5-(2-((4-Chlorophenethyl)amino)pyrimidin-5-yl)-1,3,4-oxadiazol-2-yl)-3-azabicyclo[3.1.0]hexan-6-yl)acetic acid]
48.7% | c1ccc(CCNc2ncc(-c3nnc(N4C[C@@H]5[C@H](C4)[C@H]5c4cnn[nH]4)o3)cn2)nc1 [Example 32, 5-(5-((1R,5S,6r)-6-(1H-1,2,3-Triazol-5-yl)-3-azabicyclo[3.1.0]hexan-3-yl)-1,3,4-oxadiazol-2-yl)-N-(2-(pyridin-2-yl)ethyl)pyrimidin-2-amine]
68.4% | Clc1ccc(CCNc2cnc(-c3nnc(N4C[C@@H]5[C@H](C4)[C@H]5c4cnn[nH]4)o3)cn2)cc1 [Example 42, 5-(5-((1R,5S,6r)-6-(1H-1,2,3-Triazol-5-yl)-3-azabicyclo[3.1.0]hexan-3-yl)-1,3,4-oxadiazol-2-yl)-N-(4-chlorophenethyl)pyrazin-2-amine]
95.7% | COc1ccc(CCNc2ncc(-c3nnc(N4C[C@@H]5[C@H](C4)[C@H]5c4cnn[nH]4)o3)cn2)cc1 [Example 30, 5-(5-((1R,5S,6r)-6-(1H-1,2,3-Triazol-5-yl)-3-azabicyclo[3.1.0]hexan-3-yl)-1,3,4-oxadiazol-2-yl)-N-(4-methoxyphenethyl)pyrimidin-2-amine]
84.8% | O=C(CCc1cnc(NCCc2ccc(Cl)cc2)nc1)N1C[C@@H]2[C@H](C1)[C@H]2c1cnn[nH]1 [Example 43, 1-((1R,5S,6r)-6-(1H-1,2,3-Triazol-5-yl)-3-azabicyclo[3.1.0]hexan-3-yl)-3-(2-((4-chlorophenethyl)amino)pyrimidin-5-yl)propan-1-one]
59.7% | O=C(CCc1nnc(NC2Cc3ccccc3C2)s1)N1C[C@@H]2[C@H](C1)[C@H]2c1cnn[nH]1 [Example 39, 1-((1R,5S,6r)-6-(1H-1,2,3-Triazol-5-yl)-3-azabicyclo[3.1.0]hexan-3-yl)-3-(5-((2,3-dihydro-1H-inden-2-yl)amino)-1,3,4-thiadiazol-2-yl)propan-1-one]
